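Growth conditions: 96-well plates. Treatment: test compound, 48 hours, 5 concentrations. Analysis: linear interpolation between bracketing concentrations; unreached endpoints set to highest concentration. GI50 marks 50% less growth.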 Calls of active or inactive are those of the source. No stated cut-off is given here; in the data, active = GI50 up to about 1.1 µM and inactive = higher.
How the values were obtained:
Assay in all cases: growth of human tumour cells (NCI), 48 h
CAKI-1 = tested on: CAKI-1
CCRF-CEM = tested on: CCRF-CEM
DLD-1 = tested on: DLD-1
DMS-114 = tested on: DMS-114
HCT-15 = tested on: HCT-15
HOP-92 = tested on: HOP-92
HT-29 = tested on: HT-29
KM-20L2 = tested on: KM-20L2
LXFL 529 = tested on: LXFL 529
M19-MEL = tested on: M19-MEL
NCI-H522 = tested on: NCI-H522
SF-539 = tested on: SF-539
SNB-19 = tested on: SNB-19
SNB-78 = tested on: SNB-78
SW-620 = tested on: SW-620

Row | SMILES | GI50 (CAKI-1) | GI50 (CCRF-CEM) | GI50 (DLD-1) | GI50 (DMS-114) | GI50 (HCT-15) [µM] | GI50 (HOP-92) | GI50 (HT-29) | GI50 (KM-20L2) | GI50 (LXFL 529) | GI50 (M19-MEL) | GI50 (NCI-H522) | GI50 (SF-539) | GI50 (SNB-19) | GI50 (SNB-78) | GI50 (SW-620)
1 | O=C(CC1C(=O)Nc2ccccc2[S+]1[O-])Nc1ccccc1 (configuration not stated) | > 100 µM (inactive) | > 100 µM (inactive) | > 100 µM (inactive) | > 100 µM (inactive) | > 100 | 53.8 µM (inactive) | > 100 µM (inactive) | > 100 µM (inactive) | > 100 µM (inactive) | > 100 µM (inactive) | > 100 µM (inactive) | 52.7 µM (inactive) | > 100 µM (inactive) | > 100 µM (inactive) | > 100 µM (inactive)
2 | CCOC(=O)C1(C#N)C(c2ccccc2)CC(O)(c2ccc(Cl)cc2)C(C(=O)c2ccc(Cl)cc2)C1c1ccccc1 (configuration not stated) | > 100 µM (inactive) | > 100 µM (inactive) | > 100 µM (inactive) | > 100 µM (inactive) | > 100 |  | > 100 µM (inactive) | > 100 µM (inactive) | 69.5 µM (inactive) | > 100 µM (inactive) | 35 µM (inactive) |  | 34 µM (inactive) | 82.4 µM (inactive) | > 100 µM (inactive)
3 | COC(=O)C1=Cc2c(OC)cc(OC)c(OC)c2[C@H](c2cc(OC)c(OC)cc2OC)C1C(=O)OC (some centres not stated) | > 100 µM (inactive) | 64.7 µM (inactive) | > 100 µM (inactive) | > 100 µM (inactive) | > 100 | > 100 µM (inactive) | > 100 µM (inactive) | > 100 µM (inactive) | > 100 µM (inactive) | > 100 µM (inactive) | > 100 µM (inactive) | 54.7 µM (inactive) | > 100 µM (inactive) | 20.7 µM (inactive) | > 100 µM (inactive)
4 | CC(C)=CC(=O)N1CCN(C(=O)C=C(C)C)CC1 | > 100 µM (inactive) | > 100 µM (inactive) | > 100 µM (inactive) | > 100 µM (inactive) | > 100 | > 100 µM (inactive) | > 100 µM (inactive) | > 100 µM (inactive) | > 100 µM (inactive) | > 100 µM (inactive) | > 100 µM (inactive) | > 100 µM (inactive) | > 100 µM (inactive) | > 100 µM (inactive) | > 100 µM (inactive)
5 | O=C1C2C3CC(C4C5C=CC(C5)C34)C2C2C3CC(C12)C1C2C=CC(C2)C31 (configuration not stated) | > 100 µM (inactive) | 61.4 µM (inactive) | > 100 µM (inactive) | > 100 µM (inactive) | > 100 | > 100 µM (inactive) | > 100 µM (inactive) | > 100 µM (inactive) | > 100 µM (inactive) | > 100 µM (inactive) | > 100 µM (inactive) | > 100 µM (inactive) | > 100 µM (inactive) | > 100 µM (inactive) | 20.8 µM (inactive)
6 | O=C1CN=C(C[N+](=O)[O-])c2ccccc21 | > 100 µM (inactive) |  | > 100 µM (inactive) | > 100 µM (inactive) | > 100 | > 100 µM (inactive) | > 100 µM (inactive) | > 100 µM (inactive) | > 100 µM (inactive) |  | > 100 µM (inactive) | > 100 µM (inactive) | > 100 µM (inactive) | > 100 µM (inactive) | > 100 µM (inactive)
7 | C[n+]1c2ccccc2c(NCC(=O)O)c2ccccc21 | > 100 µM (inactive) |  | > 100 µM (inactive) | > 100 µM (inactive) | > 100 |  | > 100 µM (inactive) | > 100 µM (inactive) | > 100 µM (inactive) | > 100 µM (inactive) | > 100 µM (inactive) | > 100 µM (inactive) | > 100 µM (inactive) | > 100 µM (inactive) | > 100 µM (inactive)
8 | CC(CN1CCN(CC(C)Nc2ccnc3cc(Cl)ccc23)CC1)Nc1ccnc2cc(Cl)ccc12 (configuration not stated) | 35.4 µM (inactive) | 3.69 µM (inactive) | 16.9 µM (inactive) | 20.2 µM (inactive) | 15.7 |  | 6.93 µM (inactive) | 13.4 µM (inactive) | 16.6 µM (inactive) | 21.8 µM (inactive) | 20.7 µM (inactive) | 16 µM (inactive) | 29 µM (inactive) | 21.1 µM (inactive) | 
9 | CC1=C(C(=O)O)N2C(=O)[C@@H](NC(=O)C(c3ccc(O)cc3)N3CSC(=S)N(C(C)C)C3)C2SC1 (some centres not stated) |  | 63.8 µM (inactive) | > 100 µM (inactive) | > 100 µM (inactive) | > 100 | > 100 µM (inactive) | > 100 µM (inactive) | > 100 µM (inactive) | > 100 µM (inactive) | > 100 µM (inactive) | 50.1 µM (inactive) | > 100 µM (inactive) | > 100 µM (inactive) | > 100 µM (inactive) | 
10 | O=C1C(Cl)C(c2ccccc2Cl)N1n1cnc2ccccc2c1=O (configuration not stated) | 47.6 µM (inactive) | 45.8 µM (inactive) | 61.7 µM (inactive) | 16.4 µM (inactive) | 72.6 |  | > 100 µM (inactive) | > 100 µM (inactive) | 49.1 µM (inactive) | > 100 µM (inactive) | 25.8 µM (inactive) |  | 22.5 µM (inactive) | > 100 µM (inactive) | 31.9 µM (inactive)
11 | Cc1ccc(Oc2ccc(C(=O)c3cccc(C(=O)c4ccc(Oc5ccc(C)cc5)cc4)n3)cc2)cc1 | > 100 µM (inactive) | > 100 µM (inactive) | > 100 µM (inactive) | > 100 µM (inactive) | > 100 | > 100 µM (inactive) | > 100 µM (inactive) | > 100 µM (inactive) | > 100 µM (inactive) |  | > 100 µM (inactive) | > 100 µM (inactive) | > 100 µM (inactive) | > 100 µM (inactive) | > 100 µM (inactive)
12 | COc1cc(CN[C@H]2CCc3cc(OC)c(OC)c(OC)c3-c3ccc(SC)c(=O)cc32)cc(OC)c1 | 0.0566 µM (active) |  | 0.0411 µM (active) | 0.0222 µM (active) | 0.0483 | 0.187 µM (active) | 0.0249 µM (active) | 0.0206 µM (active) | 0.0494 µM (active) | 0.0308 µM (active) | 0.0245 µM (active) | 0.0206 µM (active) | 0.0681 µM (active) | 0.0538 µM (active) | 0.0347 µM (active)
13 | CC(=O)O[C@H]1CCC2[C@@H]3CCC4=C(O)C(=O)C(C#N)C[C@]4(C)C3CC[C@@]21C (some centres not stated) |  | 30.1 µM (inactive) | 25.4 µM (inactive) | 25.6 µM (inactive) | 30 | 3.8 µM (inactive) | 42.5 µM (inactive) | 81.3 µM (inactive) | 35 µM (inactive) | 45.2 µM (inactive) |  | 50.8 µM (inactive) | 45.1 µM (inactive) | 47.5 µM (inactive) | 47.1 µM (inactive)
14 | CN(C)CC/C(=N\Nc1ccc(Cl)c(Cl)c1)c1ccccc1 |  | 2.11 µM (inactive) | 3.39 µM (inactive) | 1.83 µM (inactive) | 1.98 |  | 1.96 µM (inactive) | 1.74 µM (inactive) | 1.52 µM (inactive) | 1.89 µM (inactive) | 2.16 µM (inactive) | 1.82 µM (inactive) | 3.49 µM (inactive) | 2.4 µM (inactive) | 1.72 µM (inactive)
